Like-named read-outs stand apart in the source and are kept apart here.

Here are results for 2 compounds from publication PMC12070314, “Efficient Small-Molecule Reversal Agents for Anticoagulant Fondaparinux” (ACS Pharmacology & Translational Science, 2025).

The conditions of assay [1]: earlier work of the authors; reference number not given; read-out: Apparent affinity for heparin, K D^app; cited from earlier work.
A short description of assay [2]: Fluorescence titration with fondaparinux. In kind it is binding. The note with it: for Kd: read-out: Apparent overall affinity for fond, K D^app ≈ BC50°. An excerpt:
The fluorescence emission spectrum of 3AC upon excitation at 280 nm is a suitable indicator of the interaction with heparin-like GAGs. Thus, the titration of 3AC with fond in Bis-Tris buffer at pH 7.5 produced a perturbation of the corresponding intensity of the fluorene emission band (Figure A), presenting two clearly differentiated phases. At a low fond/3AC ratio, the fluorescence emission intensity decreases most likely due to the proximity of chromophores when several molecules of 3AC are closely bound to one molecule of fond. After reaching a fond/3AC molar ratio of ∼0.6, the emission band starts to recover as 3AC molecules are redistributed to equimolecular complexes with fond. Considering the disaccharide repeating unit of heparin as the main binding epitope of our ligands and the electrostatic charge complementarity, we can hypothesize the formation of fond/3AC supramolecular complexes with both 1:1 and 1:2 stoichiometries as the simplest binding model satisfying the two-phase behavior (Figure B). The emission band variation was successfully fitted to the 1:2 fond/3AC equilibria, rendering the formation constants (log β values) for the corresponding complexes (inset in Figure A).
Fluorescence emission and excitation spectra were collected on a Photon Technology International Instrument, Fluorescence Master Systems, using Felix32 software and cuvettes with 10 mm path length. Stock solutions of 3AC (10 μM) and fondaparinux (0.23 mM, also containing 10 μM 3AC) were prepared in 1 mM Bis-Tris buffer at pH 7.5. Then, 2 mL of binder solution was placed on a quartz cell, and the emission fluorescence spectrum was measured upon excitation at 280 nm. Then, small volumes of fond stock solution were added to the cell, and the fluorescence spectra were acquired after each addition. The titration experiments were fitted using HyperSpec 2008 software, , which allows a nonlinear global fitting of the full emission spectra to a binding mode as defined by the user.

As for `Oc1ccccc1CNCCCNCCCCNCCCNCc1ccc2c(c1)Cc1ccccc1-2` [Compound 3AC], the Kd in assay [1] is ~0.5 µM; in assay [2] (1 mM Bis-Tris buffer pH 7.5), 4.5 ± 0.09 µM. The “Stepwise binding constant K (1:1)” value in assay [2] (fond/3AC 1:1 complex, 1 mM Bis-Tris buffer pH 7.5) was 2.05 ± 0.05 × 10^5 M^–1. Moreover, the “Stepwise binding constant K (1:2)” value in assay [2] (fond/3AC 1:2 complex, 1 mM Bis-Tris buffer pH 7.5) was 1.95 ± 0.19 × 10^4 M^–1. The “logβ(3AC-Fond)” value in assay [2] (formation constant from model fitting, 1:1 complex) is recorded as 5.31(1). In assay [2] (formation constant from model fitting, 1:2 fond/3AC complex), the “logβ(3AC2-Fond)” value was 9.60(3).

Turning to `Oc1ccc2ccccc2c1CNCCCNCCCCNCCCNCc1c(O)ccc2ccccc12` [Compound 3FF], in assay [2] (1 mM Bis-Tris buffer pH 7.5), the Kd amounted to 9.8 ± 0.3 µM.
